Results: patent publication USRE47689E1, “Compounds for treating spinal muscular atrophy” (PTC Therapeutics, Inc., priority 2011, dated 2019)

Assays:
Smn protein = Smn protein assay in cultured cells (SMN HTRF); type: cell-based, human; settings: 48 hours; for maximum fold (Fold) increase of Smn protein: SMA patient fibroblast cells, 7-point concentration data, fold increase relative to vehicle control (SMN HTRF); for EC1.5x (concentration giving 1.5-fold Smn protein increase): SMA Type 1 patient fibroblast cells (GM03813), 7-point concentration curve, SMN HTRF, concentration producing 1.5 times Smn protein vs DMSO vehicle control, read-out: EC1.5x for Smn protein expression
Procedure, shortened: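 Lysates in RIPA with protease inhibitors are incubated overnight at room temperature with HTRF anti-SMN antibodies. EC1.5x is derived from fold increase in ΔF over vehicle.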

[1] = system: SMN2 minigene (full length SMN2 minigene mRNA containing SMN2 exon 7); experiment: SMN2 minigene mRNA splicing RT-qPCR assay in cultured cells; type: cell-based, human; settings: Homo sapiens, HEK293-H; HEK293H cells stably transfected with SMN2-A minigene; 24 hours; 7-point concentration curve; 1.5-fold relative to vehicle-treated cells; read-out: EC1.5x for production of full length SMN2 mRNA
Procedure, shortened: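 Read-out: full-length (exon 7-included) SMN2 minigene mRNA by multiplex RT-qPCR with GAPDH, efficiency-corrected (1+E)^−Ct, GAPDH-normalized and divided by vehicle. Stably transfected HEK293H cells, 24 h compound exposure, duplicates per concentration. Value is EC1.5x, reported as star ranges.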

melting point	Compound	maximum fold (Fold) increase of Smn protein (Smn protein)	EC (1.5-fold) [1]	EC1.5x (concentration giving 1.5-fold Smn protein increase) (Smn protein)
149 to 152 °C	Cc1cn2cc(-c3cc4ccc(CCCNCc5ccsc5)cc4oc3=O)nc2c(C)n1 [Compound 934, 3-(6,8-dimethylimidazo[1,2-a]pyrazin-2-yl)-7-{3-[(thiophen-3-ylmethyl)amino]propyl}-2H-chromen-2-one]	** (fold increase between >1.2 and ≤1.35)	< 0.1 µM	
236 to 238 °C	O=c1oc2cc(N3CCNCC3)ccc2cc1-c1cc2ccccn2n1 [Cpd 187, 7-(piperazin-1-yl)-3-(pyrazolo[1,5-a]pyridin-2-yl)-2H-chromen-2-one]	** (fold increase between >1.2 and ≤1.35)	0.3 to 1 µM	
206 to 211 °C	Cc1cccc2[nH]c(-c3cc4ccc(N5CCNCC5)cc4oc3=O)nc12 [Compound 394, 3-(4-methyl-1H-benzimidazol-2-yl)-7-(piperazin-1-yl)-2H-chromen-2-one]	* (maximum fold increase of ≤1.2)	3 to 30 µM	
248 to 250 °C	Cc1cn2cc(-c3cc4c(F)cc(N5CCCNCC5)cc4oc3=O)nc2c(C)n1 [Compound 608, 7-(1,4-diazepan-1-yl)-3-(6,8-dimethylimidazo[1,2-a]pyrazin-2-yl)-5-fluoro-2H-chromen-2-one]	***** (fold increase >1.65)	< 0.1 µM	< 300 nM
171 to 173 °C	COc1ccc(-c2cc3ccc(N4CCNCC4)cc3oc2=O)cc1C [Compound 541, 3-(4-methoxy-3-methylphenyl)-7-(piperazin-1-yl)-2H-chromen-2-one]	* (maximum fold increase of ≤1.2)	1 to 3 µM	
192 to 202 °C	Cc1cn2cc(-c3cc4ccc(N(C)[C@H]5CCNC5)cc4oc3=O)nc2c(C)n1 [Cpd 620, 3-(6,8-dimethylimidazo[1,2-a]pyrazin-2-yl)-7-{methyl[(3S)-pyrrolidin-3-yl]amino}-2H-chromen-2-one]	**** (fold increase between >1.5 and ≤1.65)	< 0.1 µM	< 300 nM
250 to 252 °C	O=c1oc2cc(N3CCNCC3)ccc2cc1-c1ccc2[nH]ncc2c1 [Compound 91, 3-(1H-indazol-5-yl)-7-(piperazin-1-yl)-2H-chromen-2-one]	** (fold increase between >1.2 and ≤1.35)	0.3 to 1 µM	
229 to 235 °C	C[C@@H]1CN(c2ccc3cc(-c4nc5c(Cl)cccc5s4)c(=O)oc3c2)C[C@H](C)N1 [Compound 25, 3-(4-chloro-1,3-benzothiazol-2-yl)-7-[(3R,5S)-3,5-dimethylpiperazin-1-yl]-2H-chromen-2-one]	* (maximum fold increase of ≤1.2)	0.3 to 1 µM	
147 to 151 °C	CCN(CC)Cc1ccc2cc(-c3nc4c(Cl)cccc4s3)c(=O)oc2c1 [Compound 58, 3-(4-chloro-1,3-benzothiazol-2-yl)-7-[(diethylamino)methyl]-2H-chromen-2-one]	**** (fold increase between >1.5 and ≤1.65)	1 to 3 µM	300 to 1000 nM
172 to 174 °C	Cc1cn2cc(-c3cc4ccc(OC[C@H]5CCCN5)cc4oc3=O)nc2c(C)n1 [Cpd 948, 3-(6,8-dimethylimidazo[1,2-a]pyrazin-2-yl)-7-[(2R)-pyrrolidin-2-ylmethoxy]-2H-chromen-2-one]	*** (fold increase between >1.35 and ≤1.5)	< 0.1 µM	
258 to 268 °C	Cc1cn2cc(-c3cc4ccc(N5C[C@H]6CN(CCO)C[C@H]6C5)cc4oc3=O)nc2c(C)n1 [Compound 741, 3-(6,8-dimethylimidazo[1,2-a]pyrazin-2-yl)-7-[(3aR,6aS)-5-(2-hydroxyethyl)hexahydropyrrolo[3,4-c]pyrrol-2(1H)-yl]-2H-chromen-2-one]	***** (fold increase >1.65)	< 0.1 µM	< 300 nM
> 310 °C	Cc1cn2cc(-c3cc4ccc(N5CCNCC5)cc4oc3=O)nc2s1 [Compound 96, 3-(2-methylimidazo[2,1-b][1,3]thiazol-6-yl)-7-(piperazin-1-yl)-2H-chromen-2-one]	*** (fold increase between >1.35 and ≤1.5)	0.1 to 0.3 µM	3000 to 10000 nM
200 to 205 °C	Cc1cn2cc(-c3cc4ccc(C5CCN(C6CCC6)CC5)cc4oc3=O)nc2c(C)n1 [Compound 821, 7-(1-cyclobutylpiperidin-4-yl)-3-(6,8-dimethylimidazo[1,2-a]pyrazin-2-yl)-2H-chromen-2-one]	***** (fold increase >1.65)	< 0.1 µM	< 300 nM
196 to 198 °C	CCN1CCN(c2ccc3cc(-c4cc5cc(C)nc(C)c5o4)c(=O)oc3c2)CC1 [Compound 788, 3-(5,7-dimethylfuro[2,3-c]pyridin-2-yl)-7-(4-ethylpiperazin-1-yl)-2H-chromen-2-one]	**** (fold increase between >1.5 and ≤1.65)	< 0.1 µM	< 300 nM
196 to 215 °C	Cc1ccn2cc(-c3cc4ccc(N5CC6CCC5CN6)cc4oc3=O)nc2c1 (stereo not drawn) [Compound 597, 7-(2,5-diazabicyclo[2.2.2]oct-2-yl)-3-(7-methylimidazo[1,2-a]pyridin-2-yl)-2H-chromen-2-one]	**** (fold increase between >1.5 and ≤1.65)	< 0.1 µM	< 300 nM
175 to 178 °C	Cc1cn2cc(-c3cc4ccc(N5CCCN(C)CC5)cc4oc3=O)ccc2n1 [Compound 653, 7-(4-methyl-1,4-diazepan-1-yl)-3-(2-methylimidazo[1,2-a]pyridin-6-yl)-2H-chromen-2-one]	*** (fold increase between >1.35 and ≤1.5)	0.1 to 0.3 µM	
183 to 188 °C	CCc1ccn2cc(-c3cc4ccc(N5C[C@@H](C)N[C@@H](C)C5)cc4oc3=O)nc2c1 [Compound 289, 7-[(3R,5S)-3,5-dimethylpiperazin-1-yl]-3-(7-ethylimidazo[1,2-a]pyridin-2-yl)-2H-chromen-2-one]	* (maximum fold increase of ≤1.2)	0.3 to 1 µM	
228 to 230 °C	Cc1nc2ccc(-c3cc4ccc(N5CCCNCC5)cc4oc3=O)cc2s1 [Compound 771, 7-(1,4-diazepan-1-yl)-3-(2-methyl-1,3-benzothiazol-6-yl)-2H-chromen-2-one]	* (maximum fold increase of ≤1.2)	1 to 3 µM	
256 to 259 °C	Cc1cn2cc(-c3cc4ccc(N5CCC(CN)CC5)cc4oc3=O)cc2c(C)n1 [Compound 784, 7-[4-(aminomethyl)piperidin-1-yl]-3-(1,3-dimethylpyrrolo[1,2-a]pyrazin-7-yl)-2H-chromen-2-one]	** (fold increase between >1.2 and ≤1.35)	1 to 3 µM	
206 to 210 °C	Cc1cn2cc(-c3cc4ccc(OC5CCN(C(CO)CO)CC5)cc4oc3=O)nc2c(C)n1 [Compound 915, 7-{[1-(1,3-dihydroxypropan-2-yl)piperidin-4-yl]oxy}-3-(6,8-dimethylimidazo[1,2-a]pyrazin-2-yl)-2H-chromen-2-one]	**** (fold increase between >1.5 and ≤1.65)	< 0.1 µM	300 to 1000 nM
123 to 126 °C	COc1ccc(-c2cc3ccc(N4CCN[C@@H](C)C4)cc3oc2=O)cc1 [Compound 449, 3-(4-methoxyphenyl)-7-[(3S)-3-methylpiperazin-1-yl]-2H-chromen-2-one]	* (maximum fold increase of ≤1.2)	1 to 3 µM	
274 to 280 °C	CN1CCN(c2ccc3cc(-c4cn5ccc(C(F)(F)F)cc5n4)c(=O)oc3c2)CC1 [Compound 115, 7-(4-methylpiperazin-1-yl)-3-[7-(trifluoromethyl)imidazo[1,2-a]pyridin-2-yl]-2H-chromen-2-one]	*** (fold increase between >1.35 and ≤1.5)	0.3 to 1 µM	
151 to 153 °C	COc1cc(OC)cc(-c2cc3ccc(N4CCCN(C)CC4)cc3oc2=O)c1 [Compound 411, 3-(3,5-dimethoxyphenyl)-7-(4-methyl-1,4-diazepan-1-yl)-2H-chromen-2-one]	* (maximum fold increase of ≤1.2)	3 to 30 µM	
225 to 230 °C	COc1ccn2cc(-c3cc4ccc(N5C[C@@H](C)N[C@@H](C)C5)cc4oc3=O)nc2c1 [Compound 432, 7-[(3R,5S)-3,5-dimethylpiperazin-1-yl]-3-(7-methoxyimidazo[1,2-a]pyridin-2-yl)-2H-chromen-2-one]	** (fold increase between >1.2 and ≤1.35)	1 to 3 µM	
